Entries after “also recorded” stand apart in the source; their conditions may differ. Like-named read-outs stand apart in the source and are kept apart here.
Assays:
[1] = system: formalin-induced nociception; assay: Formalin test, intrathecal injection (spinal cord); format: in vivo, rat; settings: for nociceptive response: injected intrathecally (into the spinal cord), 10, 1 or 0.1 μg, 20 minutes prior to formalin
Procedure: (§1) The day prior to formalin testing, rats were placed in the boxes for a 15 min habituation period. The day of testing, vehicle or PAF antagonists were administered and the rats were placed in the boxes for 20 min. At this time, animals were removed from the box, and 50 μl of 1% formalin (0.4% formaldehyde) was injected subcutaneously into the plantar surface of the right hind paw with a 27-gauge needle. Immediately after injection, each animal was exposed to the open field box for 60 min and the amount of time they elevated their injected paw was recorded as described for previous Examples.
(§2) Data were expressed as means+/−SEM and p values <0.05 were considered statistically significant. Experimental groups were compared using a one-way analysis of variance (ANOVA) with repeated measures (5 min blocks of time) followed by Scheffe's post-hoc test. Independent t-tests were used to assess the effects of the PAF antagonists on the individual 5 min bins of time post-formalin as well.

[2] = system: astrocyte-enriched cortical cell cultures; assay: Effect of PAF antagonists on mc-PAF-, lyso-PAF- and AA-induced PGE2 release from astrocytes; format: cell-based, rat; settings: for mc-PAF-induced PGE2 release: antagonist added 30 min before mc-PAF (1 μM), 30 min, BN 50730 0.1-100 μM, BN 52021 and CV 6209 1-50 μM; for AA-induced PGE2 release / lyso-PAF-induced PGE2 release: antagonist added 30 min prior
Procedure: (§3) All experimental protocols were approved by the Massachusetts Institute of Technology institutional review committee and meet the guidelines of the National Institutes of Health. Dissociated astrocytes were cultured from cortices of postnatal day 1-2 rat pups (as described by K. D. McCarthy, et al., Preparation of separate astroglial and oligodendroglial cell cultures from rat cerebral tissue, J. Cell Biol. 85 (1980) 890-902, with minor modifications R. K. K. Lee, et al., Metabolic glutamate receptors increase amyloid precursor protein processing in astrocytes: inhibition by cyclic AMP, J. Neurochem. 68 (1997) 1830-1835.) In brief, cells from dissociated cortices were plated onto poly-L-lysine coated 35- or 100 mm culture dishes. The initial culture media, minimal essential medium (MEM, Gibco-Life Technologies; Rockville, Md.) containing 15% horse serum (BioWhittaker; Walkersville, Md.), were aspirated 2-5 h after plating to remove unattached cells and debris, and replaced with MEM containing 5% fetal bovine serum (FBS, BioWhittaker; Walkersville, Md.). Half the medium was replaced with MEM/5% FBS twice weekly. Astrocytes were kept at 37° C. in a humidified 5% CO2/95% air incubator for 9-15 days, by which time the cultures were confluent and could be used for experiments.
(§4) Mc-PAF (Biomol; Plymouth Meeting, PA) was dissolved in methanol at a stock concentration of 10 mM. PAF-16, PAF-18, lyso-PAF, AA (Cayman Chemicals), lyso-PC and PC (Sigma) were dissolved in ethanol at stock concentrations of 10 mM. All stock solutions of lipids were stored at −80° C. and were used within 6 weeks of reconstitution. BN 52021 and CV 6209 (Biomol) were dissolved in ethanol. These PAF antagonists were stored at −20° C. in stock concentrations of 100 mM. BN 50730 (Biomeasure; Milford, Mass.) was dissolved in 45% hydroxy-B-cyclodextrin (HBC). All agents were diluted in warned serum-free medium prior to cell stimulation. Equal amounts of vehicle was added to control cells.
(§5) Cells used for all experiments were established in vitro 9-15 days prior to use in experiments and were over 95% confluent. Serum-containing media were changed every 3-4 days. Cells were serum-deprived 24 hours prior to experimental treatments. Where treatment with PAF antagonists is indicated, these compounds were added 30 minutes prior to the addition of other agents.
(§6) PGE2 levels were measured by ELISA according to manufacturer's instructions (Cayman Chemicals, Ann Arbor, Mich.). Since the amount of PGE2 in fresh medium was negligible, (J. Luo, et al., Transforming growth factor B1 regulates the expression of cyclooxygenase in cultured cortical astrocytes and neurons, J. Neurochem. 71 (1998) 526-534), direct assays of the PGE2 concentration in cell-conditioned medium was used as a measurement of PGE2 secretion by cultured cells. Results were derived from at least 3 separate experiments, assayed in duplicate or triplicate (n=6-8). The reliable detection limit of this assay (i.e. sensitivity) averaged 14+/−6 pg of PGE2.

[3] = system: formalin-induced nociception; assay: Formalin test, systemic (i.p.) administration; format: in vivo, rat; settings: for nociceptive response (paw elevation time), early phase: 1-10 minutes post-formalin; for nociceptive response (paw elevation time), early phase / nociceptive response (paw elevation time), late phase: 10, 1 or 0.1 mg/kg i.p. 40 minutes prior to formalin; for nociceptive response (paw elevation time), late phase: 10-60 min post-formalin, vs control-treated rats; for dose-response relationship of decrease in nociceptive behavior: three doses 10, 1, 0.1 mg/kg i.p.
Procedure: Sixty male Sprague Dawley rats weighing 300-350 g (Taconic Labs, Canada) were housed in groups of 2-3 per cage, in polycarbonate cages. Animals were maintained under standard environmental conditions (room temperature: 20-20° C.; relative humidity: 55-60%; light/dark schedule: 12/12 hr) with free access to standard laboratory chow and tap water.
BN 50730 (Biomeasure; Milford, Mass.) and BN 52021 (Biomol) were dissolved in 45% hydroxypropyl-B-cyclodextrin in distilled water (HBC). Drugs (at doses of 10, 1, or 0.1 mg/kg) or vehicle were administered intraperitoneally (i.p.) 40 minutes prior to formalin injection. The doses chosen were based on those found to produce central effects after their peripheral administration.
Experiments were carried out in accordance with The National Institutes of Health Guide for the Care and Use of Laboratory Animals. Behavioral testing was carried out in a blind manner. Nociceptive responses were examined in the formalin test described previously, (Dubisson et al., The formalin test: a quantitative study of the analgesic effects of morphine, meperidine, and brain stimulation of rats and cats. Pain 4 (1977) 161-174). In brief, animals were placed in a clear Plexiglas® formalin test box (30 cm×30 cm×30 cm), with a mirror positioned at a 45° angle below the floor allowing for unobstructed observation of the animal's paw. Following a 10-min habituation period, animals were removed from the formalin box, at which time 50 μl of 1% formalin was injected subcutaneously (s.c.) into the plantar surface of the right hind paw with a 27-gauge needle. The amount of time that each rat elevated the injected paw was recorded in five-min intervals during the […] period following formalin injection. Each animal was used once.
The 60-min formalin test produced a biphasic response consisting of an initial, rapidly decaying acute phase (early phase, 1-10 minutes after injection) followed by a slow rising and long-lived tonic phase (late phase, 15-60 minutes after injection). Typically animals elevated their paws following injection (i.e. the early phase) followed by a reduction in this behavior. Approximately 15-20 minutes after injection, the inflammatory late phase began, and animals again elevated their paws to varying degrees for the remainder of the testing period. The amount of time animals elevated their injected paw was used as a behavioral measure of pain.
Data were expressed as means+/−SEM, and p values <0.05 were considered statistically significant. Treatment groups were compared with vehicle-controls using one-way analysis of variance (ANOVA) followed by Fischer's PLSD post-hoc test to compare between groups if overall significance was found by ANOVA.

[4] = system: formalin-induced nociception; assay: Formalin test, injection into the lateral ventricle; format: in vivo, rat; settings: for nociceptive response (paw elevation), group effect: lateral ventricle, 10, 1 or 0.1 μg, 20 min prior to formalin, ANOVA
Procedure: Animals were anesthetized (50 mg/kg sodium pentobarbitol), and unilateral guide cannulae (23 gauge) were implanted into the lateral ventricle. The guide cannulae were attached to the skull using jeweler's screws and dental acrylic. After surgery, stylets were inserted and left in place to ensure cannula patency. The formalin test was conducted 7-10 days post-surgery.
as §1
(§7) Upon completion of testing, animals were overdosed with sodium pentobarbitol and perfused with saline followed by 10% formalin solution. Brains were removed, fixed, and cut into 20-μm coronal sections throughout the cannula tract. Sections were then mounted, stained with cresyl violet, and coverslipped. […] The behavioral data for 4 rats were discarded from the study due to incorrect cannulae placement.
as §2

[5] = system: formalin-induced nociception; assay: Formalin test, intra-hippocampal injection; format: in vivo, rat
Procedure: as §1, §7, §2

COX-2 = COX-2 protein level after mc-PAF stimulation (immunocytochemical and Western blot analyses); format: cell-based, rat; settings: within 30 min of mc-PAF stimulation; data not shown
[6] = system: primary cortical astrocytes; assay: Effect of COX inhibitors on mc-PAF-induced PGE2 release from primary astrocytes (Example 3); format: cell-based, rat; settings: mc-PAF 0.001 to 1 μM, 30 min
Procedure: Mc-PAF (Cayman Chemical, Ann Arbor, Mich.) was dissolved in ethanol at a stock concentration of 10 mM. Indomethacin, piroxicam, NS-398 (Biomol; Plymouth Meeting, Mass.), and SC-560 (Cayman Chemical) were dissolved in 45% hydroxy-β-cyclodextrin (HBC; Sigma, St. Louis, Mo.). Cells were serum-deprived for 24 hrs prior to experimental treatments to induce quiescence. Where treatment with inhibitors is indicated, these compounds were added 30 min prior to the addition of mc-PAF.
Direct assay of the PGE2 concentration in cell-conditioned medium was used as an index of PGE2 secretion by primary astrocytes. PGE2 levels were measured by ELISA according to manufacturer's instructions (Cayman Chemicals, Ann Arbor, Mich.), as described.
Results were derived from at least 3 separate experiments, assayed in duplicate or triplicate (n=6−8). Data were expressed as means+/−SEMs. Statistical analyses were performed using ANOVAs for comparisons between groups, followed by Fischer's PLSD post hoc comparisons by means contrast. p values <0.05 were considered statistically significant.

COX-1 = COX-1 protein level after mc-PAF stimulation (immunocytochemical and Western blot analyses); format: cell-based, rat; settings: within 30 min of mc-PAF stimulation; data not shown
[7] = system: astrocyte-enriched cortical cell cultures
[8] = system: astrocyte-enriched cortical cell cultures; assay: PGE2 release (ELISA) from astrocyte-enriched cortical cell cultures exposed to PAF analogs, related lipids or AA; format: cell-based, rat
Procedure: as §3, §4, §5, §6

COc1ccc(NC(=S)N2CCc3c(sc4c3C(c3ccccc3Cl)=NCc3nnc(C)n3-4)C2)cc1 [BN 50730]
comparative efficacy when administered to the spinal cord ([1]; administered to the spinal cord (Example 4)): more effective than BN 52021
nociceptive response [1]: decreased the nociceptive response
mc-PAF-induced PGE2 release [2]: attenuates; also recorded: prevented; also recorded: completely abolished
AA-induced PGE2 release [2]: significantly attenuated; also recorded: only attenuated; also recorded: attenuates
lyso-PAF-induced PGE2 release [2]: significantly attenuated; also recorded: completely abolished; also recorded: attenuates
basal release of PGE2 ([2]; higher concentrations of BN 50730): reduce the basal release of PGE2
nociceptive response (paw elevation time), early phase [3]: not significantly affected
nociceptive response (paw elevation time), late phase [3]: significantly shorter paw elevation times; also recorded: decreased nociceptive behavior
dose-response relationship of decrease in nociceptive behavior [3]: a dose-response relationship was not revealed
nociceptive response (paw elevation), group effect [4]: not significantly affected
nociceptive behavior during the tonic or late phase [5]: not

C[C@@H]1C(=O)O[C@H]2[C@H](O)[C@@]34[C@H]5C[C@@H](C(C)(C)C)[C@]36[C@@H](OC(=O)[C@@H]6O)O[C@@]4(C(=O)O5)[C@@]12O [BN 52021, ginkolide B]
nociceptive response [1]: not
mc-PAF-induced PGE2 release [2]: no significant effect; also recorded: did not significantly influence; also recorded: do not attenuate
AA-induced PGE2 release [2]: had no effect
lyso-PAF-induced PGE2 release [2]: had no effect
PGE2 release, antagonist administered alone ([2]; no mc-PAF): PGE2 release was increased
nociceptive response (paw elevation time), early phase [3]: not significantly affected
nociceptive response (paw elevation time), late phase [3]: significantly shorter times; also recorded: decreased nociceptive behavior
dose-response relationship of decrease in nociceptive behavior [3]: a dose-response relationship was not revealed
comparative efficacy when administered to the brain ([4]; administered to the brain (Example 4)): more effective than BN 50730
paw elevation at 50 min post-formalin ([4]; lateral ventricle, 1 μg): decreased paw elevation
nociceptive response (paw elevation), group effect [4]: significantly affected
levels of paw elevation between 30 and 45 min post-formalin ([4]; lateral ventricle, 10 and 1 μg, independent t-tests): significantly attenuated
nociceptive responses compared with control-treated rats ([4]; lateral ventricle, 10 or 1 μg, Scheffe's post-hoc): significantly diminished
nociceptive behavior during the tonic or late phase [5]: decreases nociceptive behavior

CCCCCCCCCCCCCCCCOC[C@H](COP(=O)([O-])OCC[N+](C)(C)C)OC(=O)NC [mc-PAF, methylcarbamyl-PAF]
COX-2 protein levels (COX-2): did not increase
release of PGE2 into the conditioned media [6]: concentration-dependent increases
COX-1 protein levels (COX-1): did not increase
toxicity to cells ([7]; 1 μM mc-PAF): does not appear to have toxic effects
toxicity to cells ([7]; 10 μM mc-PAF, 24 hours): cytologic evidence of toxicity
time at which PGE2 levels returned to baseline ([8]; 1 μM mc-PAF): ≤ 12 h
time of maximum mobilization of PGE2 ([8]; 1 μM mc-PAF): 30 min
time of second, smaller peak of PGE2 release ([8]; 1 μM mc-PAF): 8 h
time to first observed increase in PGE2 release ([8]; 1 μM mc-PAF): ≤ 5 min
PGE2 release over time ([8]; 1 μM mc-PAF, 37° C., various times): time-dependent increase
PGE2 release into the conditioned media ([8]; 30 min, 37° C., various concentrations): concentration-dependent increases
